# Patent US20250186410A1, “DUAL INHIBITORS OF TRYPTOPHAN DIOXYGENASES (IDO1 AND TDO) AND THEIR USE IN THERAPY” (ANTIDO THERAPEUTICS INTERNATIONAL SÀRL, priority 2022, published 2025)
# Legend:
# [1] = Body weight and clinical observations, Pan02 syngeneic model; format: in vivo, mouse; settings: for Body weight, Mean: oxaliplatin 6 mg/kg i.p. BIW, AT-0174 120 mg/kg p.o. QD Day 7-32
# Description: (§1) Female C57BL/6 mice were used in the study, with ad libitum access to rodent food and water throughout the study period.
# (§2) Murine pancreatic Pan02 cancer cells were cultured in a 37° C. incubator containing 5% CO2 with 10% FBS in DMEM medium. The cells were sub-cultured within 10 passages before inoculated into the mice. 1*10^6 PANC02 cells in 100 μL serum-free medium mixed with Matrigel (v/v 1:1) were subcutaneously inoculated at the right flank of each mouse under anesthetized with 2-5% isoflurane before inoculation.
# Body weight: Mice body weights were measured and recorded three times per week after grouping. Animals were also weighed in the event of accidental death or near-death euthanasia.
# Pan02 tumors = experiment: Tumor volume, mouse subcutaneous Pan02 syngeneic model of pancreatic cancer; format: in vivo; settings: for tumor volume, Mean: oxaliplatin 6 mg/kg i.p. BIW, AT-0174 120 mg/kg p.o. QD Day 7-32
# Description: as §1, §2
# Tumor volume: The tumor volume (V) was calculated as follows: V=(length×width^2)/2. Tumor volume was measured and recorded three times per week after grouping.
# The individual relative tumor volume (RTV) was calculated as follows: RTV=Vt/V0, where Vt is the volume on each day, and V0 is the volume at the beginning of the treatment.
# [2] = system: immune cells in Pan02 tumors; experiment: FACS analysis of Pan02 tumors; format: in vivo, mouse; settings: Day 34, oxaliplatin 6 mg/kg i.p. BIW, AT-0174 120 mg/kg p.o. QD
# Description: On Day 34, all tumor-bearing mice were sacrificed, and tumors were collected for FACS analysis. FACS panels were:
# Panel A: L/D, CD45, CD3, CD4, CD8, CD11b, CD25, IFN-γ, Foxp3.
# Panel B: L/D, CD45, CD3, CD11b, NKG2D, F4/80.
# Flow cytometry was conducted using a Beckman Cytoflex LX and antibodies from Thermofisher and Biolegend, using standard methods.
# LLC-CR cells = settings: cited from earlier work
# [3] = system: LLC (mouse Lewis lung cancer cells); experiment: Growth inhibition of parental LLC cells; format: cell-based; settings: 24 h
# Description: Cisplatin resistant mouse cell lines (LLC-CR) were derived from LLC (mouse Lewis lung cancer cells (epidermoid carcinoma), ATCC) through treatment with increasing doses of cisplatin intermittently. LLC-CR clones were maintained in half GI50 dosage concentration. […] The cultures were observed daily and allowed to grow until they reached an initial cell density. […] After the cells recovered from cisplatin toxicity, they were treated again with increasing dosage of cisplatin for 24 h. These cells are seeded at 500-1000 cells per dish and cultured for 5-7 days. Clones are selected and expanded as well as tested for cisplatin sensitivity. Similar processes of exposure are carried out for a third and fourth time to generate higher resistant clones. At the end, the resistance clones (LLC-CR) were maintained in media completed with 1 μg/ml (half GI50 dosage) of cisplatin.
structure (smiles),measurement,setting,value
O=C1[O][Pt]2([NH][C@@H]3CCCC[C@H]3[NH]2)[O]C1=O [Oxaliplatin],"Body weight, Mean","[1]; Pan02, day 4",21.21 g
same,"Body weight, Mean","[1]; Pan02, day 11",21.10 g
same,"Body weight, Mean","[1]; Pan02, day 25",23.00 g
same,"Body weight, Mean","[1]; Pan02, day 28",22.00 g
same,"Body weight, Mean","[1]; Pan02, day 32",22.65 g
same,"Body weight, Mean","[1]; Pan02, day 34",23.31 g
same,body weight loss / tolerability,[1]; Pan02 model,Slight body weight loss
same,"tumor volume, Mean","Pan02 tumors; Pan02, day 0",63.84 mm^3
same,"tumor volume, Mean","Pan02 tumors; Pan02, day 4",80.36 mm^3
same,"tumor volume, Mean","Pan02 tumors; Pan02, day 7",108.77 mm^3
same,"tumor volume, Mean","Pan02 tumors; Pan02, day 11",152.24 mm^3
same,"tumor volume, Mean","Pan02 tumors; Pan02, day 14",250.08 mm^3
same,"tumor volume, Mean","Pan02 tumors; Pan02, day 18",410.18 mm^3
same,"tumor volume, Mean","Pan02 tumors; Pan02, day 21",601.42 mm^3
same,"tumor volume, Mean","Pan02 tumors; Pan02, day 25",735.54 mm^3
same,"tumor volume, Mean","Pan02 tumors; Pan02, day 28",912.95 mm^3
same,"tumor volume, Mean","Pan02 tumors; Pan02, day 32",1316.29 mm^3
same,"tumor volume, Mean","Pan02 tumors; Pan02, day 34",1507.92 mm^3
same,anti-tumor response,"Pan02 tumors; Pan02 model, compared with the vehicle group",little anti-tumor response
same,CD4+ Tregs,[2],25.40%
same,CD8+ CD3+ Tcells,[2],31.62%
N.N.[Cl][Pt][Cl] [cisplatin],GI50 concentration in resistant clones,LLC-CR cells; LLC-CR cells,~2 µg/mL
same,fold resistance of LLC-CR,LLC-CR cells; LLC-CR versus parental LLC,3-5 fold
same,50% growth inhibition (GI50) concentration,[3],0.4 µg/mL
